Entries after “also recorded” stand apart in the source; their conditions may differ. Where two headings read alike, the source gives them in different places.
Legend:
[1] = test system: titin minigene TTN Ex241-43 transcripts; assay: RT-PCR / RT-qPCR of transcripts from titin minigene TTN Ex241-43 (I96-98); assay type: cell-based, human
From the text: The objective of our study was to identify and evaluate small molecules with the potential to modulate alternative splicing via an unbiased chemical high-throughput screening approach. Using transient transfection of a dual luciferase splicing reporter assay (DLR-assay) in HEK293.EBNA cells and a RBM20 expression construct, we investigated >34.000 substances for their effect on alternative exon exclusion from our RBM20 dependent titin PEVK4-13 splicing reporter. For the primary screen (pilot screen), each compound was tested at 10 μM (single point) and compared to an untreated control. Positive hits leading to differential exon usage (exceeding three standard deviations) were picked for independent validation in 9 serial 2-fold dilutions starting at 20 μM. Compounds that produced a concentration dependent effect were validated manually in the 96-well format and cytotoxicity was evaluated. To minimize the detection of false positives, we excluded compounds with structural homology to each luciferase’s natural substrate. To determine the EC50 of candidates we calculated dose response curves using a non-linear least-squares fitting routine available within the GNUPLOT package (accessible online: http://ic50.tk/index.html). We evaluated the effect on splice activity on the RNA level by RT-qPCR of isoforms generated from a titin minigene containing TTN Ex241-43 (corresponding to TTN I-band exon I96-98) in the presence of the potential splice modulators. […]
Total RNA from HEK293.EBNA cells was extracted using RNeasy Micro Kit (Qiagen, Hilden, Germany) according to the manufacturer’s instructions. […] Quantitative RT-PCR was performed using SYBRGreen master mix (Applied Biosystems by Thermo Fisher Scientific Inc., USA) on a 7900 HT RT-cycler (Applied Biosystems by Thermo Fisher Scientific, Inc., USA). […] To quantification gene expression, we used the ΔΔCT method normalized to 18S or to the alternative transcripts generated from the splicing reporter. PSI values were calculated as ratio of unspliced and spliced reporter transcript. […]

HEK293.EBNA cells = assay: Cell viability, resazurin based staining (PrestoBlue); set-up: species or system human; conditions: for IC50: Homo sapiens, HEK293-EBNA
From the text: (§1) Cells transfected were at a confluency of 50-60%.

[2] = test system: RBM20 dependent titin PEVK4-13 splicing reporter; assay: Dual luciferase splicing reporter assay (DLR assay), RBM20 co-transfected; assay type: cell-based, human; conditions: for IC50: Homo sapiens
From the text: (§2) The objective of our study was to identify and evaluate small molecules with the potential to modulate alternative splicing via an unbiased chemical high-throughput screening approach. Using transient transfection of a dual luciferase splicing reporter assay (DLR-assay) in HEK293.EBNA cells and a RBM20 expression construct, we investigated >34.000 substances for their effect on alternative exon exclusion from our RBM20 dependent titin PEVK4-13 splicing reporter. For the primary screen (pilot screen), each compound was tested at 10 μM (single point) and compared to an untreated control. Positive hits leading to differential exon usage (exceeding three standard deviations) were picked for independent validation in 9 serial 2-fold dilutions starting at 20 μM. Compounds that produced a concentration dependent effect were validated manually in the 96-well format and cytotoxicity was evaluated. To minimize the detection of false positives, we excluded compounds with structural homology to each luciferase’s natural substrate. To determine the EC50 of candidates we calculated dose response curves using a non-linear least-squares fitting routine available within the GNUPLOT package (accessible online: http://ic50.tk/index.html). […] Compounds that produced a concentration depend effect in the DLR-assay and altered the alternative transcript levels were regarded as validated alternative splicing modulators.
as §1
(§3) 5000 HEK293.EBNA cells were seeded in clear bottom, white 384-well plates (Corning by Sigma-Aldrich Chemie GmbH, Munich, Germany) using an automated cell dispenser (Biotek, Bad Friedrichshall, Germany). 24 h after cell seeding the expression plasmids were delivered using a Freedom EVO® robotic workstation (TECAN, Maennedorf, Switzerland) equipped with a MultiChannel Arm™. Cells were transiently transfected with 45 ng plasmid DNA ([…] and 40 ng RBM20 or 24 ng of the negative control pcDNA3.1 ad 45 ng with bacterial expression plasmid pBSSK). Compounds were added to the plates the following day using the same robotic platform. Luciferase activity was determined using Dual-Glo® Luciferase Assay System (Promega GmbH, Mannheim, Germany) on an Infinite® M1000 Pro (TECAN, Maennedorf, Switzerland) plate reader around 60 hours post-transfection. Assay robustness was evaluated by calculation z’ scores using an online tool provided by the Screening Unit at FMP Berlin (http://www.screeningunit-fmp.net/tools/z-prime.php).

[3] = as above; assay type: cell-based, human; conditions: human; RBM20 titin reporter, N = 3; read-out: cell viability below which the splice reporter readout is affected
From the text: as §2, §1, §3

RBM20 protein levels = assay: RBM20 protein expression by immunoblot in co-transfected HEK293 cells; assay type: cell-based, human; conditions: 0.235 μM digoxin, co-transfected HEK293 cells
Procedure: For immunodetection, HEK293.EBNA samples were harvested by rinsing them of the cell culture substrate using PBS at 37°C and subsequently used for downstream processing or snap frozen in liquid nitrogen. For protein extraction samples were suspended in RIPA buffer (50 mM Tris pH 8.0, 150 mM NaCl, 1% NP-40, 0.25% sodium deoxycholate, 1.0 mM EDTA; 0.1% SDS) and lysed via sonication with 20 bursts at 70% energy using a VialTweeter (Hielscher Ultrasonics GmbH, Teltow, Germany). Protein concentration was estimated after 20’ precipitation of cell debris at 13,000xg for 20 min at 4°C using BCA assay (Life Technologies GmbH, Darmstadt, Germany [23225]). Samples were kept cool at any time. Lysates were separated by SDS-PAGE [14] and blotted on PVDF membranes. Blotted antigens were probed with mouse anti-c-myc 9E10 ([M5546], Sigma-Aldrich Chemie GmbH, Munich, Germany) tag antibody at 1:2000 and detected using a sheep anti-mouse IgG-HRP (GE Healthcare Europe GmbH, Freiburg, Germany [NA9310V]) conjugate 1:5000 follow by visualization with AceGlow™ (VWR PEQL37) on a FUSION FX7 CCD camera system (Vilber Lourmat Deutschland GmbH, Eberhardzell, Germany).

[4] = target: Na+/K+ ATPase human erythrocytes; set-up: method as in PMID 11072868; conditions: cited from earlier work
in vitro = conditions: human
Procedure: (§4) For transfection 25000 cells/well were seeded on 96-well Nunc F96 MicroWell™ plates (Life Technologies GmbH, Darmstadt, Germany) and transfected with a total of 200 ng of plasmid DNA of which 1 ng was splice reporter plus a corresponding amount of RBM20, RBFOX1 or control plasmid (pcDNA3.1) in a 20x molar excess. To deliver plasmid DNA we used the 40 kDa linear polyethylenimine (Polysciences Europe GmbH, Hirschberg, Germany) at a 1:3 ratio (DNA:PEI40). Cells transfected were at a confluency of 50-60%. Compounds were applied 24 h post-transfection at a final DMSO concentration of 1%. Luciferase activity was measured 60 hours post-transfection using the Dual-Luciferase® Reporter Assay System (Promega GmbH, Mannheim, Germany) on an Infinite® M200 Pro (TECAN, Maennedorf, Switzerland) plate reader. Ratios of firefly to renilla luciferase activity were normalized to the control (pcDNA3.1) without the splicing factor expression construct. Cell viability was measured 60 h post-transfection using a resazurin based staining of metabolically active cells (PrestoBlue®, Life Technologies GmbH, Darmstadt, Germany).
(§5) To evaluate the specificity of the splice effect, we generated an independent splice reporter based on formin-like 3 (FMNL3) and its splice factor RBFOX1 (S5 Fig). […] To exclude an unspecific effect of cell death on RBM20 dependent splicing, we used the steroidal homolog digitonin to induce cell death.

[5] = test system: RBFOX1 dependent splicing of FMNL3; assay: cells
Procedure: as §4, §5

[6] = HEK293 cells, 60 h post-transfection, RBM20/titin reporter transfected, read-out: Viability IC50

Row | SMILES | effect on splicing on the mRNA level (in words) ([1]; RT-PCR of minigene, HEK293) | IC50 (HEK293.EBNA cells; [6]) | effect on RBM20-mediated titin splicing (in words) ([2]; DLR assay, HEK293) | IC50 ([2]; FLuc/RLuc ratio, HEK293 cells, 96-well format, inset table of figure, read-out: Splicing IC50) | viability at 36 h [3] | intron retention / mRNA maturation (in words) ([1]; HEK293 transfected with RBM20 and minigene I96-98) | IC50 (HEK293.EBNA cells; HEK293, read-out: IC50 viability (half-maximal lethal dose)) | Viability Hill Coeff. (HEK293.EBNA cells; dose response fit, head prints [μM], fits IC50 only) | Viability Max (HEK293.EBNA cells; fit maximum of relative viability, head prints [μM], fits IC50 only) | RBM20 protein levels reduced to (RBM20 protein levels) | IC50 [4] | Splicing Hill Coeff. [2] | effect on RBM20-mediated titin splicing (in words) [2] | IC50 ([2]; HEK293, read-out: IC50 Splicing HEK293 cells) | viability at 36 h (in vitro) | IC50 ([5]; Homo sapiens, HEK293, read-out: FMNL3/RBFOX1 Splicing IC50, FMNL3 exons 25-26 reporter co-transfected with RBFOX1, HEK293) | effect on FMNL3 splicing (in words) ([5]; concentrations of up to 20x the half-maximal lethal dose)
1 | C[C@@H]1CC[C@@]2(OC1)O[C@H]1[C@@H](O)[C@H]3[C@@H]4CC[C@H]5C[C@@H](O[C@@H]6O[C@H](CO)[C@H](O[C@@H]7O[C@H](CO)[C@@H](O)[C@H](O[C@@H]8OC[C@@H](O)[C@H](O)[C@H]8O)[C@H]7O[C@@H]7O[C@H](CO)[C@H](O)[C@H](O[C@@H]8O[C@H](CO)[C@@H](O)[C@H](O)[C@H]8O)[C@H]7O)[C@H](O)[C@H]6O)[C@H](O)C[C@]5(C)[C@H]4CC[C@]3(C)[C@H]1[C@@H]2C [Digitonin] | no effect on the mRNA level | 2670 ± 212 nM | little effect at the highest doses only; also recorded: do not interfere with RBM20 dependent splicing | 14100 ± 3980 nM | < 20% |  |  |  |  |  |  |  |  |  |  |  | 
2 | C[C@H]1O[C@@H](O[C@H]2[C@@H](O)C[C@H](O[C@H]3[C@@H](O)C[C@H](O[C@H]4CC[C@@]5(C)[C@H](CC[C@@H]6[C@@H]5C[C@@H](O)[C@]5(C)[C@@H](C7=CC(=O)OC7)CC[C@]65O)C4)O[C@@H]3C)O[C@@H]2C)C[C@H](O)[C@@H]1O [Digoxin] |  | 132 ± 6.6 nM |  |  |  | does not cause intron retention | 132 nM | 2.2906 ± 0.2256 | 1.0089 ± 0.0119 | 10% | 0.39 nM | 2.8711 ± 0.6588 | efficiently inhibit RBM20 mediated splicing | 153 nM | < 30% | 2600 nM | not affected
